Measured values taken from patent US9968098B2, “Synergistic Bacillus thuringiensis subsp. aizawai, Bacillus thuringiensis subsp. kurstaki and cyantraniliprole mixtures for diamondback moth, beet armyworm, southwestern corn borer, and corn earworm” (Valent BioSciences LLC, priority 2016, dated 2018).
Like-named read-outs stand apart in the source and are kept apart here.

Key:
cabbage looper larvae = test: Leaf dip test, cabbage looper larvae; type: in vivo; conditions: Trichoplusia ni, foliar, Bta/Btk 0.8125 ppm, cyantraniliprole 0.50 ppm, mixture 0.8125 ppm + 0.50 ppm (Ratio 1:0.62), read-out: % Efficacy
Experimental: (§1) Sympatico™ emulsifiable suspension (available from Valent BioSciences LLC) was used as the source of Bacillus thuringiensis subsp. aizawai and Bacillus thuringiensis kurstaki. Sympatico™ contains about a 1:0.67 ratio of Bacillus thuringiensis subsp. kurstaki fermentation solids, spores and toxins to Bacillus thuringiensis subsp. aizawai fermentation solids, spores and toxins. Belt® was used as the source of cyantraniliprole. […] In each example below, the studies were conducted as follows.
(§2) For these tests, standardized laboratory leaf dip methods were used to inoculate plant material with treatment(s). Dry, treated leaves were placed into Petri dishes (100×25 mm) containing filter paper wetted with 500 μl of distilled H2O (“dH2O”). Each dish was then infested with between 5 and 10 larvae, dependent on species. Efficacy ratings were taken at specified intervals. Synergy ratings were calculated for each test.
(§3) % Cexp=A+B−(AB/100), where % Cexp is the expected efficacy and “in which A and B are the control levels given by the single [insecticides].
In this study, the response of cabbage looper larvae to amounts of Bacillus thuringiensis subsp. aizawai, Bacillus thuringiensis subsp. kurstaki and cyantraniliprole was observed.
Bacillus thuringiensis subsp. aizawai/Bacillus thuringiensis subsp. kurstaki was applied at a concentration of 0.8125 ppm (0.8125 μg/ml). […]

sugarcane borer larvae = test: Leaf dip test, sugarcane borer larvae; type: in vivo; conditions: Diatraea saccharalis, foliar, Bta/Btk 0.8125 ppm, cyantraniliprole 1.0 ppm, mixture 0.8125 ppm + 1.0 ppm (Ratio 1:1.23), read-out: % Efficacy
From the text: (§4) The following examples were used to determine the synergy of Bacillus thuringiensis subsp. aizawai, Bacillus thuringiensis subsp. kurstaki and cyantraniliprole when controlling diamondback moth, beet armyworm, sugarcane borer, soybean looper, corn earworm, cabbage looper, and southwestern corn borer. Sympatico™ emulsifiable suspension (available from Valent BioSciences LLC) was used as the source of Bacillus thuringiensis subsp. aizawai and Bacillus thuringiensis kurstaki. Sympatico™ contains about a 1:0.67 ratio of Bacillus thuringiensis subsp. kurstaki fermentation solids, spores and toxins to Bacillus thuringiensis subsp. aizawai fermentation solids, spores and toxins. Belt® was used as the source of cyantraniliprole. […] In each example below, the studies were conducted as follows.
as §2
(§5) % Cexp=A+B−(AB/100), where % Cexp is the expected efficacy and “in which A and B are the control levels given by the single [insecticides]. […]

[1] = test system: southwestern corn borer larvae; test: Leaf dip test, southwestern corn borer larvae; type: in vivo, Diatraea grandiosella; conditions: foliar, Bta/Btk 0.8125 ppm, cyantraniliprole 0.1 ppm, mixture 0.8125 ppm + 0.1 ppm (Ratio 1:0.12), read-out: % Efficacy
From the text: as §4, §2, §5

diamondback moth larvae = test: Leaf dip test, diamondback moth larvae; type: in vivo; conditions: Plutella xylostella, foliar, Bta/Btk 0.8125 ppm, cyantraniliprole 0.12 ppm, mixture 0.8125 ppm + 0.12 ppm (Ratio 1:0.12), read-out: % Efficacy
From the text: The following examples were used to determine the synergy of Bacillus thuringiensis subsp. aizawai, Bacillus thuringiensis subsp. kurstaki and cyantraniliprole when controlling diamondback moth, beet armyworm, sugarcane borer, soybean looper, corn earworm, cabbage looper, and southwestern corn borer. Sympatico™ emulsifiable suspension (available from Valent BioSciences LLC) was used as the source of Bacillus thuringiensis subsp. aizawai and Bacillus thuringiensis kurstaki. Sympatico™ contains about a 1:0.67 ratio of Bacillus thuringiensis subsp. kurstaki fermentation solids, spores and toxins to Bacillus thuringiensis subsp. aizawai fermentation solids, spores and toxins. Belt® was used as the source of cyantraniliprole. The present invention is not limited to the commercial products used in the examples. […]
For these tests, standardized laboratory leaf dip methods were used to inoculate plant material with treatment(s). […] Synergy ratings were calculated for each test. […]
In order to determine synergy, rates below normal field rate ranges must be used. If normal field rate ranges are used, all of the larvae would die (combining a lethal or near lethal dose of Bacillus thuringiensis subsp. aizawai and Bacillus thuringiensis subsp. kurstaki with a lethal dose of cyantraniliprole would most likely lead to larvae death) in every treatment and synergy would not be able to be determined. […]

beet armyworm larvae = test: Leaf dip test, beet armyworm larvae; type: in vivo; conditions: Spodoptera exigua, foliar, Bta/Btk 0.8125 ppm, cyantraniliprole 1.0 ppm, mixture 0.8125 ppm + 1.0 ppm (Ratio 1:1.23), read-out: % Efficacy
Experimental: as §1, §2, §3
Bacillus thuringiensis subsp. aizawai/Bacillus thuringiensis subsp. kurstaki was applied at a concentration of 0.8125 ppm (0.8125 μg/ml). Cyantraniliprole was applied at a concentration of 1.0 ppm (1.0 μg/ml). […]

soybean looper larvae = test: Leaf dip test, soybean looper larvae; type: in vivo, Chrysodeixis includens; conditions: foliar, Bta/Btk 0.26 ppm, cyantraniliprole 1.0 ppm, mixture 0.26 ppm + 1.0 ppm (Ratio 1:15), read-out: % Efficacy
Experimental: Belt® was used as the source of cyantraniliprole. […] In each example below, the studies were conducted as follows.
as §2, §3
In this study, the response of soybean looper larvae to Bacillus thuringiensis subsp. aizawai, Bacillus thuringiensis subsp. kurstaki and cyantraniliprole was observed.
Bacillus thuringiensis subsp. aizawai/Bacillus thuringiensis subsp. kurstaki was applied at a concentration of 0.26 ppm (0.26 μg/ml). Cyantraniliprole was applied at a concentration of 1.0 ppm (1.0 μg/ml). The Bacillus thuringiensis subsp. aizawai/Bacillus thuringiensis kurstaki/cyantraniliprole mixture was applied at a concentration of 0.26 ppm Bacillus thuringiensis subsp. aizawai/Bacillus thuringiensis subsp. kurstaki and 1.0 ppm cyantraniliprole.

corn earworm larvae = test: Leaf dip test, corn earworm larvae; type: in vivo; conditions: Helicoverpa zea, foliar, Bta/Btk 2.6 ppm, cyantraniliprole 10.0 ppm, mixture 2.6 ppm + 10.0 ppm (Ratio 1:3.85), read-out: % Efficacy
Experimental: In each example below, the studies were conducted as follows.
as §2
% Cexp=A+B−(AB/100), where % Cexp is the expected efficacy and “in which A and B are the control levels given by the single [insecticides]. […] Adopting a conservative approach, Applicant will determine if synergy is present at ratios of ≥1.15.
In this study, the response of corn earworm larvae to amounts of Bacillus thuringiensis subsp. aizawai, Bacillus thuringiensis subsp. kurstaki and cyantraniliprole was observed.
Bacillus thuringiensis subsp. aizawai/Bacillus thuringiensis subsp. kurstaki was applied at a concentration of 2.6 ppm (2.6 μg/ml). Cyantraniliprole was applied at a concentration of 10.0 ppm (10.0 μg/ml). The Bacillus thuringiensis subsp. aizawai/Bacillus thuringiensis kurstaki/cyantraniliprole mixture was applied at a concentration of 2.6 ppm Bacillus thuringiensis subsp. kurstaki/Bacillus thuringiensis subsp. aizawai and 10.0 ppm cyantraniliprole.

In the case of `CNC(=O)c1cc(C#N)cc(C)c1NC(=O)c1cc(Br)nn1-c1ncccc1Cl` [Cyantraniliprole, 3-Bromo-1-(3-chloro-2-pyridinyl)-N-[4-cyano-2-methyl-6-(methylcarbamoyl)phenyl]-1H-pyrazole-5-carboxamide], the Emax at 0.5 ppm (cabbage looper larvae; 24 h after treatment) is reported as 18%, the Emax at 0.5 ppm (cabbage looper larvae; 48 h after treatment) is reported as 40% and the Emax at 1 ppm (sugarcane borer larvae; 24 h after treatment) is reported as 24%. The Emax at 1 ppm (sugarcane borer larvae; 48 h after treatment) was 35%, the Emax at 0.1 ppm ([1]; 24 h after treatment) was 15% and the Emax at 0.1 ppm ([1]; 48 h after treatment) was 32%. It also gave an Emax at 0.12 ppm (diamondback moth larvae; 24 h after treatment) of 29%, an Emax at 0.12 ppm (diamondback moth larvae; 48 h after treatment) of 52% and an Emax at 1 ppm (beet armyworm larvae; 24 h after treatment) of 20%. For the same compound, the Emax at 1 ppm (beet armyworm larvae; 48 h after treatment) was 35%, the Emax at 1 ppm (soybean looper larvae; 24 h after treatment) was 12% and the Emax at 1 ppm (soybean looper larvae; 48 h after treatment) was 41%. It also gave an Emax at 10 ppm (corn earworm larvae; 24 h after treatment) of 44% and an Emax at 10 ppm (corn earworm larvae; 48 h after treatment) of 60%.
